Laboratory results: patent publication EP1097139B1, “QUINOLINE DERIVATIVES” (Active Biotech AB, priority 1998, dated 2000)

Columns and labels:
[1] = test system: female rats during pregnancy; experiment: Teratogenic effects in the rat; format: in vivo; settings: dose of 6 mg/kg/day, subcutaneously, day 8 to 14 of pregnancy
Source text: Teratogenic effects in the rat.
The compounds were administrated subcutaneously to female rats during pregnancy, i.e., day 8 to 14 of pregnancy. The rats were caesarean sectioned and necropsied on day 20 after fertilisation. The foetuses were examined for external and internal abnormalities.

beagle dogs = experiment: Beagle Pain Syndrome (BPS); format: in vivo; settings: different breeds of beagle dogs
Description: The disease is reflected by clinical and laboratory manifestations justifying BPS as a model for the flu-like syndrome induced by roquinimex in man.
Beagle Pain Syndrome (BPS).
The compounds were administrated intravenously to beagle dogs. The dosage was given for five consecutive days. The dogs were evaluated for clinical and laboratory signs of the pain syndrome, e.g., fever, increased erythrocyte sedimentation rate (ESR), alkaline phosphate (AP), induction of acute phase proteins and vasculitis

man = settings: e.g. a flu-like syndrome; cited from earlier work
[2] = test system: acute experimental autoimmune encephalomyelitis (aEAE); experiment: Acute experimental autoimmune encephalomyelitis (aEAE) inhibition; format: in vivo; settings: at ≥5 mg/kg, mice, treatment control
[3] = test system: female rats during pregnancy; settings: no dose given, background statement; cited from earlier work

Row | Compound | Teratogenic effects in the rat [1] | induction of the Beagle Pain Syndrome (BPS) (beagle dogs) | side effects in man (man) | inhibition of acute experimental autoimmune encephalomyelitis (aEAE) [2] | teratogenic in the rat [3]
1 | CCN(C(=O)c1c(O)c2c(SC)cccc2n(C)c1=O)c1ccccc1 [Compound A, N-ethyl-N-phenyl-1,2-dihydro-4-hydroxy-5-methylthio-1-methyl-2-oxo-quinoline-3-carboxamide] | non-teratogenic | – | – | – | –
2 | CSc1cccc2c1c(O)c(C(=O)N(C)c1ccccc1)c(=O)n2C [N-methyl-N-phenyl-1,2-dihydro-4-hydroxy-5-methylthio-1-methyl-2-oxo-quinoline-3-carboxamide] | teratogenic | – | – | – | –
3 | CSc1cccc2c1c(O)c(C(=O)N(C)c1ccc(F)cc1F)c(=O)n2C [Compound B, N-methyl-N-(2,4-difluoro-phenyl)-1,2-dihydro-4-hydroxy-5-methylthio-1-methyl-2-oxo-quinoline-3-carboxamide] | non-teratogenic | – | – | – | –
4 | CN(C(=O)c1c(O)c2ccccc2n(C)c1=O)c1ccccc1 [Roquinimex, roquinimex] | – | induce the Beagle Pain Syndrome (BPS) | induces dose-limiting side effects | more than 50% | teratogenic
